These are literature values, as cited in patent publication US12350251B2, “Sexual health enhancement composition” (Rev Pharmaceuticals, Inc., priority 2016, dated 2025).

Structures are written as SMILES. Like-named read-outs stand apart in the source and are kept apart here.

Experiment in data set [1]: not given
The source holds these as a separate data set.

Experiment in data set [2]: not given
This is another data set of the same source.

A further data set relates to cAMP production. The settings on record: treated cells.
For a further data set, the system named is human CC. The following applies: in vitro, alone; read-out: EC50 of relaxation of human CC.

With `Cl.N=C(N)NCCC[C@H](N)C(=O)O` [L-arginine hydrochloride (HCl), L-arginine hydrochloride], under “6 gm oral”, the Cmax was 310 µM. In addition, the Half-life was 1 h (IV) and 1.5 h (PO). The changes in hemodynamics entry in data set [1] (6 gm doses) is reported as “No significant changes”. The “urinary cGMP and nitrate excretion” value in data set [1] (about 6 gm to about 30 gm IV) was “significant increases”. Further, the “blood pressure and total peripheral resistance” value in data set [1] (after 30 gm IV) is listed as “significantly decreased”.
On to `N=C(N)NCCC[C@H](N)C(=O)O` [L-arginine], for which the “peripheral vasodilation in humans” value in data set [1] (IV infusion or oral, about 6 to about 30 gm) was “induced peripheral vasodilation”.
As to `C=C[C@@]1(C)CC(=O)[C@]2(O)[C@@]3(C)[C@@H](O)CCC(C)(C)[C@@H]3[C@H](O)[C@H](OC(C)=O)[C@@]2(C)O1` [forskolin], the water solubility result in data set [2] is recorded as “water soluble”.
With `COc1ccc(Cc2nccc3cc(OC)c(OC)cc23)cc1OC` [papaverine], the cAMP production result with cAMP production was “unaffected”.
Take `Cc1ccc(N(CC2=NCCN2)c2cccc(O)c2)cc1` [phentolamine]: the cAMP production entry with cAMP production is “unaffected”.
Regarding `CCCCC[C@H](O)/C=C/[C@H]1[C@H](O)CC(=O)[C@@H]1CCCCCCC(=O)O` [prostaglandin E1], the EC50 in the data set with human CC was roughly 16 nM.
